These results are taken from ChEMBL document CHEMBL4814070 (Eur J Med Chem, 2021).

In general, IC50 refers to the point on the concentration scale where inhibition reaches its midpoint. Read a high IC50 as lower potency. In general, inhibition refers to the change of the read-out against control, counted positive when it falls.

Data set [1] can be described thus: Toxicity in Wistar rat assessed as prepulse inhibition of acoustic startle response at 0.3 mg/kg, ip measured for 10 mins by open field test relative to control. It counts as organism-based. The settings on record: in vivo.
The test system of data set [2] is Rattus norvegicus. Kind of data set: Effect on spontaneous locomotory activity in Wistar rat at 1 mg/kg, ip measured for 10 mins by open field test. It counts as functional, organism-based.
Data set [3] in a line: Ratio of drug level in brain to plasma in ICR mouse at 5 mg/kg, ip measured after 15 mins by HPLC-MS analysis. Format: ADME, organism-based. The note with it: brain and plasma, read-out: BBR.
Another data set has as its target Cholinesterase (Homo sapiens, UniProt P06276).
The subject of data set [4] is Rattus norvegicus. Kind of data set: Reduction in total distance travelled in Wistar rat at 5 mg/kg, ip measured for 10 mins by open field test relative to control. Format: functional, organism-based.
A further data set concerns the target Acetylcholinesterase (Homo sapiens, UniProt P22303).
The target in data set [5] is T1, Glutamate NMDA receptor; GRIN1/GRIN2B (Homo sapiens, UniProt Q05586+Q13224).
Description: Inhibition of human GluN1a/GluN2B receptor expressed in HEK293 cells assessed as inhibition of glycine/glutamate-induced current measured at -60 mV holding potential by whole-cell patch clamp method
Data set [6] can be described thus: Drug uptake in ICR mouse plasma at 5 mg/kg, ip measured after 60 mins by HPLC-MS analysis. Format: ADME, organism-based.
For data set [7], the system named is Rattus norvegicus. Kind of data set: Effect on spontaneous locomotory activity in Wistar rat at 5 mg/kg, ip measured for 10 mins by open field test. It counts as functional, organism-based.
For data set [8], the target named is T2, Glutamate NMDA receptor; GRIN1/GRIN2A (Homo sapiens, UniProt Q05586+Q12879).
Description: Inhibition of human GluN1a/GluN2A receptor expressed in HEK293 cells assessed as relative inhibition of glycine/glutamate-induced current measured at +40 mV holding potential by whole-cell patch clamp method
Data set [9] in a line: Drug uptake in ICR mouse brain at 5 mg/kg, ip measured after 60 mins by HPLC-MS analysis. Format: ADME, organism-based. The settings on record: read-out: Drug uptake.
Data set [10] can be described thus: Toxicity in Wistar rat assessed as hyperlocomotion at 5 mg/kg, ip measured for 10 mins by open field test relative to control. Format: organism-based. The settings on record: in vivo.
For data set [11], the target named is T2, Glutamate NMDA receptor; GRIN1/GRIN2A. Kind of data set: Inhibition of human GluN1a/GluN2A receptor expressed in HEK293 cells assessed as relative inhibition of glycine/glutamate-induced current at 100 uM measured at +40 mV holding potential by whole-cell patch clamp method. Format: cell-based. For orientation: Patch clamp records ionic current or voltage across a cell membrane.

In data set [12] the target is T1, Glutamate NMDA receptor; GRIN1/GRIN2B. This is another data set of the same source.
Description: Inhibition of human GluN1a/GluN2B receptor expressed in HEK293 cells assessed as relative inhibition of glycine/glutamate-induced current measured at +40 mV holding potential by whole-cell patch clamp method
The nature of data set [13]: Drug uptake in ICR mouse brain at 5 mg/kg, ip measured after 15 mins by HPLC-MS analysis. It counts as ADME, organism-based. The note with it: read-out: Drug uptake.
Data set [14] can be described thus: Toxicity in Wistar rat assessed as prepulse inhibition of acoustic startle response at 1 to 5 mg/kg, ip measured for 10 mins by open field test relative to control. Format: organism-based. The settings on record: in vivo, dose 1-5 mg/kg.
The target in data set [15] is T2, Glutamate NMDA receptor; GRIN1/GRIN2A. The source holds these as a separate data set.
Description: Inhibition of human GluN1a/GluN2A receptor expressed in HEK293 cells assessed as inhibition of glycine/glutamate-induced current measured at -60 mV holding potential by whole-cell patch clamp method
Data set [16] in a line: Drug uptake in ICR mouse plasma at 5 mg/kg, ip measured after 15 mins by HPLC-MS analysis. Format: ADME, organism-based.

Activity calls are given as the source filed them. The rule behind the calls is not given here.

T1 sequence (Q13224 whole entry, looked up, other chains not shown): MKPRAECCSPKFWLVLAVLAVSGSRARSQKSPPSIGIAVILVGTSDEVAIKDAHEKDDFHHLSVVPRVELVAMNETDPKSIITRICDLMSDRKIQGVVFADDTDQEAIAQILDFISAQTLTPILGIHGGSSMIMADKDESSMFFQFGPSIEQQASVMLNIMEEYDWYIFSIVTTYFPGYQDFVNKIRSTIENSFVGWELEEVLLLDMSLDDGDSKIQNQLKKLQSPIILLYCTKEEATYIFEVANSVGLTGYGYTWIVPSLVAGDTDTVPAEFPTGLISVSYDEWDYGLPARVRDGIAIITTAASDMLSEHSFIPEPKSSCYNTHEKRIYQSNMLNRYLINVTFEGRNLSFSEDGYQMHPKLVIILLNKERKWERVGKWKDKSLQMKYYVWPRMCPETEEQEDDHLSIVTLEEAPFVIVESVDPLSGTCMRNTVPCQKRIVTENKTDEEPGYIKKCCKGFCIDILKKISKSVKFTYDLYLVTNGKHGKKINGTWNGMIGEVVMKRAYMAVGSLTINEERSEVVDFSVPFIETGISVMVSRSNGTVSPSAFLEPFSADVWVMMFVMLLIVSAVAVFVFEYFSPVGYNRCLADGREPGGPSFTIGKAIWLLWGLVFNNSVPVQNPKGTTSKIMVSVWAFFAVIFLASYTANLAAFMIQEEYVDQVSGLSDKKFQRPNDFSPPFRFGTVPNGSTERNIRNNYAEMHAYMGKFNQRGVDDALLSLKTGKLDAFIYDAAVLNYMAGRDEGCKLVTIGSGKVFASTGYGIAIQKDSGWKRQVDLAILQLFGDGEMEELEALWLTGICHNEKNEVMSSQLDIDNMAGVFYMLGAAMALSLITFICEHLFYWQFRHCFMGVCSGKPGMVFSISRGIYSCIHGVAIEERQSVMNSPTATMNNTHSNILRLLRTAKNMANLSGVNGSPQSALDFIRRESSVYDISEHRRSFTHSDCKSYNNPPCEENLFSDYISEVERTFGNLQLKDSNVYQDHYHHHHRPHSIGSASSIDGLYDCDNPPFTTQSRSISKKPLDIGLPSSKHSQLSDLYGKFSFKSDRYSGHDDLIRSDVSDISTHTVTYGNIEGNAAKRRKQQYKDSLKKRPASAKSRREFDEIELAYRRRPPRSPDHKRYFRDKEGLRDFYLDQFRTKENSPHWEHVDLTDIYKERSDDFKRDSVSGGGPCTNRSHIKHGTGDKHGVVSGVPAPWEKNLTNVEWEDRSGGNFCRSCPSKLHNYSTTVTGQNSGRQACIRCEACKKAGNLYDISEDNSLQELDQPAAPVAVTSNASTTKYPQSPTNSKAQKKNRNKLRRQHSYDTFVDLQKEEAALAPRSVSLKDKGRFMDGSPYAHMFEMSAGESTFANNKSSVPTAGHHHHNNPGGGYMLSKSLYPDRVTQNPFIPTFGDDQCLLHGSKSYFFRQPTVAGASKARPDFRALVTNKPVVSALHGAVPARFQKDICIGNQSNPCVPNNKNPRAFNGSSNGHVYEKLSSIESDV
Acetylcholinesterase, sequence (P22303 whole entry): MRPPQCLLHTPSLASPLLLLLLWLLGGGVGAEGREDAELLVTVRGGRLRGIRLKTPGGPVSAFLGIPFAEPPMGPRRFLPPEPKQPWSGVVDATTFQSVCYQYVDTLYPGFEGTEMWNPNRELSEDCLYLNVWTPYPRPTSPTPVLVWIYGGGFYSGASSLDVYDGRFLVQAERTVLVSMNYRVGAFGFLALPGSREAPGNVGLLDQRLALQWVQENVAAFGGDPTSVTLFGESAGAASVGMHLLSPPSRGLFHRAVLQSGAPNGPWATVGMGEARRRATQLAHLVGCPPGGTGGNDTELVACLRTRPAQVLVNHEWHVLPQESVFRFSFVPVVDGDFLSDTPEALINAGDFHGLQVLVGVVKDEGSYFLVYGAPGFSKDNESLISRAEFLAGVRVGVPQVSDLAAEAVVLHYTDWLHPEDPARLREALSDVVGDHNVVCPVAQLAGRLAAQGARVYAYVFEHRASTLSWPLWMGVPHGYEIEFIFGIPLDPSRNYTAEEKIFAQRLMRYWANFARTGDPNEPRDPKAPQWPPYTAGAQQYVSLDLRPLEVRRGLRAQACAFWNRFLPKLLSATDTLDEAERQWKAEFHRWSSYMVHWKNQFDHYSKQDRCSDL
Cholinesterase, sequence (P06276 whole entry): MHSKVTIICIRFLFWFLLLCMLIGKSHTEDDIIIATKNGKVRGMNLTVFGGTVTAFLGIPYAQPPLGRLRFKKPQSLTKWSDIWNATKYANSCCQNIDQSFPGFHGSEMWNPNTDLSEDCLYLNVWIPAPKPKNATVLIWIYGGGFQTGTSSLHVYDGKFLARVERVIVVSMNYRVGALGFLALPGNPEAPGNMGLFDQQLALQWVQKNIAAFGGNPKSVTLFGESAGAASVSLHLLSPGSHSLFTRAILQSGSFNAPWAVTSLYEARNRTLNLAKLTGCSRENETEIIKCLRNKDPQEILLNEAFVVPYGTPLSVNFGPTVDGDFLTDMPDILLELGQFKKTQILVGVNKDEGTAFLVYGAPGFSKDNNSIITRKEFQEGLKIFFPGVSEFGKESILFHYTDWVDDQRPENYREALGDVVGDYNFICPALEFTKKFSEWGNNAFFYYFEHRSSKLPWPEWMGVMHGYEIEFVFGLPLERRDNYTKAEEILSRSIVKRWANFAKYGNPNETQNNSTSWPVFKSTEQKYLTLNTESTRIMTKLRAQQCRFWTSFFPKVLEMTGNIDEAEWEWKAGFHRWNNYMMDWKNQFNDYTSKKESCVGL
Description for Acetylcholinesterase: Inhibition of human recombinant AChE assessed as reduction in cholinesterase activity using acetylthiocholine iodide as substrate by Ellman's method

`C[C@]12N[C@H](Cc3ccccc31)c1ccccc12` [DIZOCILPINE]: the Activity entry in data set [1] is reported as “Toxic”.
For the molecule `Cl.Nc1c2c(nc3cccc(Cl)c13)CCCCC2`, the outcome in the data set with Rattus norvegicus [2] and with Rattus norvegicus [7] was inactive. The Kp at 0.25 h in data set [3] came to 33. The IC50 on Cholinesterase amounted to 0.311 µM; on Acetylcholinesterase, 223 µM; in data set [5] it was 22.1 µM; in data set [8], 112 µM; in data set [12] it was 146 µM; in [15], 7.29 µM. The outcome in the data set on Rattus norvegicus [4] was Active. The concentration at 1 h is 185 nM in data set [6] and 32 nM in [9]. Also, the Activity result is “Toxic” in data set [10] and “Non-Toxic” in data set [14]. The inhibition in data set [11] was 46.7%. Further, the concentration at 0.25 h worked out at 762 nM in data set [13] and 2290 nM in [16].
